Where a name gives a salt, the structure may show the parent alone.
System: influenza A/Singapore/1/57 virus
Assay: microbe, parasite or virus in culture
Format: cell-based

SMILES: CCOC(=O)c1c(CSc2ccccc2)n(C)c2cc(Br)c(O)c(CN(C)C)c12 [Arbidol, 1-methyl-2-phenylthiomethyl-3-carbethoxy-4-dimethylaminomethyl-5-oxy-6-bromindol hydrochloride]
- suppression of virus reproduction (1 μg of arbidol with 10-12 mg of zanamivir or oseltamivir): 100%
- Percent of inhibition of OD 490 (A or B 0.3 μg/ml + Zanamivir 0.3 μg, added 2 hours after infection): 20%
- Percent of inhibition of OD 490 (A or B 0.3 μg/ml + Zanamivir 1 μg, added 2 hours after infection): 30%
- Percent of inhibition of OD 490 (A or B 0.3 μg/ml + Zanamivir 3.3 μg, added 2 hours after infection): 37%
- Percent of inhibition of OD 490 (A or B 0.3 μg/ml + Zanamivir 10 μg, added 2 hours after infection): 48%
- Percent of inhibition of OD 490 (A or B 0.3 μg/ml + Zanamivir 33 μg, added 2 hours after infection): 60%
- Percent of inhibition of OD 490 (A or B 1 μg/ml + Zanamivir 0.3 μg, added 2 hours after infection): 33%
- Percent of inhibition of OD 490 (A or B 1 μg/ml + Zanamivir 3.3 μg, added 2 hours after infection): 46%
- Percent of inhibition of OD 490 (A or B 1 μg/ml + Zanamivir 10 μg, added 2 hours after infection): 100%
- Percent of inhibition of OD 490 (A or B 1 μg/ml + Zanamivir 33 μg, added 2 hours after infection): 100%
- Percent of inhibition of OD 490 (A or B 3 μg/ml + Zanamivir 0.3 μg, added 2 hours after infection): 60%
- Percent of inhibition of OD 490 (A or B 3 μg/ml + Zanamivir 1 μg, added 2 hours after infection): 58%
- Percent of inhibition of OD 490 (A or B 3 μg/ml + Zanamivir 3.3 μg, added 2 hours after infection): 93%
- Percent of inhibition of OD 490 (A or B 3 μg/ml + Zanamivir 10 μg, added 2 hours after infection): 100%
- Percent of inhibition of OD 490 (A or B 3 μg/ml + Zanamivir 33 μg, added 2 hours after infection): 100%
- Percent of inhibition of OD 490 (A or B 5 μg/ml + Zanamivir 0.3 μg, added 2 hours after infection): 69%
- Percent of inhibition of OD 490 (A or B 5 μg/ml + Zanamivir 1 μg, added 2 hours after infection): 85%
- Percent of inhibition of OD 490 (A or B 5 μg/ml + Zanamivir 3.3 μg, added 2 hours after infection): 88%
- Percent of inhibition of OD 490 (A or B 5 μg/ml + Zanamivir 10 μg, added 2 hours after infection): 100%
- Percent of inhibition of OD 490 (A or B 5 μg/ml + Zanamivir 33 μg, added 2 hours after infection): 100%
- Percent of inhibition of OD 490 (A or B 10 μg/ml + Zanamivir 0.3 μg, added 2 hours after infection): 71%
- Percent of inhibition of OD 490 (A or B 10 μg/ml + Zanamivir 1 μg, added 2 hours after infection): 85%
- Percent of inhibition of OD 490 (A or B 10 μg/ml + Zanamivir 3.3 μg, added 2 hours after infection): 98%
- Percent of inhibition of OD 490 (A or B 10 μg/ml + Zanamivir 10 μg, added 2 hours after infection): 100, 100%
- Percent of inhibition of OD 490 (A or B 10 μg/ml + Zanamivir 33 μg, added 2 hours after infection): 100, 100%
- Percent of inhibition of OD 490 (A or B 10 μg/ml alone (Zanamivir 0), added 2 hours after infection): 22%
- Percent of inhibition of OD 490 (A or C 0.3 μg/ml + Oseltamivir 0.4 μg, added 2 hours after infection): 35%
- Percent of inhibition of OD 490 (A or C 0.3 μg/ml + Oseltamivir 4.1 μg, added 2 hours after infection): 37%
- Percent of inhibition of OD 490 (A or C 0.3 μg/ml + Oseltamivir 12.3 μg, added 2 hours after infection): 47%
- Percent of inhibition of OD 490 (A or C 1 μg/ml + Oseltamivir 0.4 μg, added 2 hours after infection): 48%
- Percent of inhibition of OD 490 (A or C 1 μg/ml + Oseltamivir 1.2 μg, added 2 hours after infection): 59%
- Percent of inhibition of OD 490 (A or C 1 μg/ml + Oseltamivir 4.1 μg, added 2 hours after infection): 56%
- Percent of inhibition of OD 490 (A or C 1 μg/ml + Oseltamivir 12.3 μg, added 2 hours after infection): 100%
- Percent of inhibition of OD 490 (A or C 1 μg/ml + Oseltamivir 41 μg, added 2 hours after infection): 100%
- Percent of inhibition of OD 490 (A or C 3 μg/ml + Oseltamivir 0.4 μg, added 2 hours after infection): 62%
- Percent of inhibition of OD 490 (A or C 3 μg/ml + Oseltamivir 1.2 μg, added 2 hours after infection): 58%
- Percent of inhibition of OD 490 (A or C 3 μg/ml + Oseltamivir 4.1 μg, added 2 hours after infection): 90%
- Percent of inhibition of OD 490 (A or C 3 μg/ml + Oseltamivir 12.3 μg, added 2 hours after infection): 100%
- Percent of inhibition of OD 490 (A or C 3 μg/ml + Oseltamivir 41 μg, added 2 hours after infection): 100, 100%
- Percent of inhibition of OD 490 (A or C 5 μg/ml + Oseltamivir 0.4 μg, added 2 hours after infection): 79%
- Percent of inhibition of OD 490 (A or C 5 μg/ml + Oseltamivir 1.2 μg, added 2 hours after infection): 84%
- Percent of inhibition of OD 490 (A or C 5 μg/ml + Oseltamivir 4.1 μg, added 2 hours after infection): 100%
- Percent of inhibition of OD 490 (A or C 5 μg/ml + Oseltamivir 12.3 μg, added 2 hours after infection): 98%
- Percent of inhibition of OD 490 (A or C 5 μg/ml + Oseltamivir 41 μg, added 2 hours after infection): 100, 100%
- Percent of inhibition of OD 490 (A or C 10 μg/ml + Oseltamivir 0.4 μg, added 2 hours after infection): 70%
- Percent of inhibition of OD 490 (A or C 10 μg/ml + Oseltamivir 1.2 μg, added 2 hours after infection): 85%
- Percent of inhibition of OD 490 (A or C 10 μg/ml + Oseltamivir 4.1 μg, added 2 hours after infection): 100%
- Percent of inhibition of OD 490 (A or C 10 μg/ml + Oseltamivir 12.3 μg, added 2 hours after infection): 100%
- Percent of inhibition of OD 490 (A or C 10 μg/ml + Oseltamivir 41 μg, added 2 hours after infection): 100%
- Percent of inhibition of OD 490 (A or C 10 μg/ml alone (Oseltamivir 0), added 2 hours after infection): 20%
- Percent of inhibition of OD 490 (A or D 1 μg/ml + Amantadin 0.3 μg/ml, added 30 min prior to infection): 30%
- Percent of inhibition of OD 490 (A or D 1 μg/ml + Amantadin 1 μg/ml, added 30 min prior to infection): 30%
- Percent of inhibition of OD 490 (A or D 1 μg/ml + Amantadin 5 μg/ml, added 30 min prior to infection): 52%
- Percent of inhibition of OD 490 (A or D 1 μg/ml + Amantadin 10 μg/ml, added 30 min prior to infection): 59%
- Percent of inhibition of OD 490 (A or D 1 μg/ml + Remantadin 0.3 μg/ml, added 30 min prior to infection): 31%
- Percent of inhibition of OD 490 (A or D 1 μg/ml + Remantadin 1 μg/ml, added 30 min prior to infection): 33%
- Percent of inhibition of OD 490 (A or D 1 μg/ml + Remantadin 5 μg/ml, added 30 min prior to infection): 50%
- Percent of inhibition of OD 490 (A or D 1 μg/ml + Remantadin 10 μg/ml, added 30 min prior to infection): 59%
- Percent of inhibition of OD 490 (A or D 1 μg/ml alone (Amantadin 0), added 30 min prior to infection): 30%
- Percent of inhibition of OD 490 (A or D 1 μg/ml alone (Remantadin 0), added 30 min prior to infection): 30%

Reference: US20090326037A1 (priority 2005, published 2009)
